From patent US20220306695A1, “COMPSTATIN ANALOGUES AND THEIR MEDICAL USES” (priority 2019, published 2022)
Starred links: 1 amine or outer side, 2 acyl side, 3 side chain; linkers in the order of their positions; H or OH if unused. Positions of bridges follow the written chain, without caps; N, C: chain ends. Non-standard residues stand in square brackets, D forms with d. Residues, ends and D or L forms follow the SMILES beside them. Groups on a side chain read outwards from the residue. *: point of attachment. Trp(1-Me) = Cn1cc(C[C@H](N)C(=O)O)c2ccccc21; Abu(4-yl) = O=C([C@H](CC[*:3])N[*:1])[*:2]; C18 diacid = O=C(O)CCCCCCCCCCCCCCCCC(=O)*; C16 diacid = O=C(O)CCCCCCCCCCCCCCC(=O)*; γGlu = O=C(O)[C@H](CCC(=O)[*:2])N[*:1]; 2Nal = N[C@@H](Cc1ccc2ccccc2c1)C(=O)O; AEEA = NCCOCCOCC(=O)O; Sar = CNCC(=O)O

Each compound was assayed on classical complement pathway (assay: In vitro haemolysis assay (inhibition of classical complement pathway)). Conditions: Table 3; human serum, sensitized sheep red blood cells; read-out: IC50[nM], in vitro analysis of inhibition of hemolysis.
Format: cell-based, human
Description: Method The in vitro effect of test compounds was assessed by measuring their inhibitory effect of the classical complement pathway in a haemolysis assay. Briefly, test compounds and reference compounds were dissolved in DMSO and diluted in Tris/Casein Assay Buffer (10 mM Tris, 145 mM NaCl, 0.5 mM MgCl2, 0.15 mM CaCl2, and 0.1% W/V Casein, adjusted to pH 7.4) as 9-point serial dilutions in a 96 well plate. Sensitized sheep red blood cells (RBC) coated with rabbit anti-sheep erythrocyte antiserum (Complement Technology, Inc., TX, USA) were washed in Tris/Casein Assay Buffer. 50 μL from each well of diluted compound was added to a 96-well plate containing 50 μL diluted human serum (Complement Technology, Inc., TX, USA) and incubated for 15 minutes at room temperature. The serum dilution factor was optimized for every serum batch to obtain 70-90% of maximal haemolysis using the protocol. Then 50 μL sensitized sheep red blood cells were added to all wells ([…] per well). After 30 minutes of incubation at 37° C. with gentle agitation, the reaction was stopped by addition of 50 μL Tris STOP Buffer per well (10 mM EDTA, 10 mM Tris, 145 mM NaCl adjusted to pH 7.4). The RBCs were then removed by centrifugation and the resulting supernatant measured for hemolysis by absorbance at 405 nm. The response was normalized relative to a positive and negative control (vehicle) to calculate the IC50 from the concentration response curve using the 4-parameter logistic (4PL) nonlinear model for curve fitting.
CC[C@H](C)[C@H](NC(C)=O)C(=O)N[C@H]1CSSC[C@@H](C(=O)N[C@H](C(N)=O)[C@@H](C)O)NC(=O)[C@H](CCCNC(=N)N)NC(=O)[C@H](Cc2c[nH]cn2)NC(=O)[C@H](CCCCN)NC(=O)CNC(=O)[C@H](Cc2c[nH]c3ccccc23)NC(=O)[C@H](CC(=O)O)NC(=O)[C@H](CCC(N)=O)NC(=O)[C@H](Cc2c[nH]c3ccccc23)NC(=O)[C@H]([C@@H](C)CC)NC1=O [Compound 5] (Ac-ICIWQDWGKHRCT-NH2; disulfide 2-12) was tested, and the IC50 was under 250 nM.
In the case of CC[C@H](C)[C@H](NC(=O)[C@H](C)NC(=O)[C@H](CO)NC(C)=O)C(=O)N[C@H]1CSSC[C@@H](C(=O)N[C@H](C(=O)N[C@@H](CCC(=O)O)C(=O)NCC(N)=O)[C@@H](C)O)NC(=O)[C@H](CCCNC(=N)N)NC(=O)[C@H](Cc2c[nH]cn2)NC(=O)[C@H](CCC(=O)O)NC(=O)CNC(=O)[C@H](Cc2c[nH]c3ccccc23)NC(=O)[C@H](CC(=O)O)NC(=O)[C@H](CCC(N)=O)NC(=O)[C@H](Cc2c[nH]c3ccccc23)NC(=O)[C@H]([C@@H](C)CC)NC1=O [Compound 42] (Ac-SAICIWQDWGEHRCTEG-NH2; disulfide 4-14), the IC50 is reported as under 250 nM.
CC[C@H](C)[C@@H]1NC(=O)[C@@H](NC(=O)[C@H](Cc2ccc(O)cc2)NC(=O)[C@H](CCC(=O)O)NC(=O)[C@H](CO)NC(C)=O)CSSC[C@@H](C(=O)N(C)CC(=O)N[C@@H](CCC(=O)O)C(=O)NCC(=O)N[C@@H](CCC(=O)O)C(=O)NCCOCCOCC(=O)NCCOCCOCC(=O)N[C@@H](CCCCNC(=O)CC[C@H](NC(=O)CNC(=O)CC[C@H](NC(=O)CCCCCCCCCCCCCCCCC(=O)O)C(=O)O)C(=O)O)C(N)=O)NC(=O)[C@H](CCCNC(=N)N)NC(=O)[C@H](Cc2c[nH]cn2)NC(=O)[C@H](CCC(=O)O)NC(=O)CNC(=O)[C@H](Cc2c[nH]c3ccccc23)NC(=O)[C@H](CC(=O)O)NC(=O)[C@H](CCC(N)=O)NC(=O)[C@H](Cc2cn(C)c3ccccc23)NC1=O [Compound 117] (Ac-SEYCI[Trp(1-Me)]QDWGEHRC[Sar]EGE[AEEA][AEEA]K([γGlu-Gly-γGlu-C18 diacid])-NH2; disulfide 4-14) gave an IC50 of under 250 nM.
Compound CC[C@H](C)[C@@H]1NC(=O)[C@@H](NC(=O)[C@@H](NC(=O)[C@H](CCC(=O)O)NC(C)=O)[C@@H](C)CC)CSSC[C@@H](C(=O)N[C@H](C(=O)N[C@@H](CCC(=O)O)C(=O)NCC(=O)N[C@@H](CCC(=O)O)C(N)=O)[C@@H](C)O)NC(=O)[C@H](CCCNC(=N)N)NC(=O)[C@H](Cc2c[nH]cn2)NC(=O)[C@H](CCC(=O)O)NC(=O)CNC(=O)[C@H](Cc2c[nH]c3ccccc23)NC(=O)[C@H](CC(=O)O)NC(=O)[C@H](CCC(N)=O)NC(=O)[C@H](Cc2c[nH]c3ccccc23)NC1=O [Compound 34] (Ac-EICIWQDWGEHRCTEGE-NH2; disulfide 3-13) has an IC50 of under 250 nM.
CC[C@H](C)[C@H](NC(C)=O)C(=O)N[C@H]1CSSC[C@@H](C(=O)N[C@H](C(=O)N[C@@H](CCC(=O)O)C(=O)NCC(=O)N[C@@H](CCCCNC(=O)COCCOCCNC(=O)COCCOCCNC(=O)CC[C@H](NC(=O)CCCCCCCCCCCCCCC(=O)O)C(=O)O)C(N)=O)[C@@H](C)O)NC(=O)[C@H](CCCNC(=N)N)NC(=O)[C@H](Cc2c[nH]cn2)NC(=O)[C@H](CCC(=O)O)NC(=O)CNC(=O)[C@H](Cc2c[nH]c3ccccc23)NC(=O)[C@H](CC(=O)O)NC(=O)[C@H](CCC(N)=O)NC(=O)[C@H](Cc2c[nH]c3ccccc23)NC(=O)[C@H]([C@@H](C)CC)NC1=O [Compound 93] (Ac-ICIWQDWGEHRCTEGK([AEEA-AEEA-γGlu-C16 diacid])-NH2; disulfide 2-12) gave an IC50 of under 500 nM.
For CC[C@H](C)[C@@H]1NC(=O)[C@@H](NC(=O)[C@H](Cc2ccc(O)cc2)NC(=O)[C@H](CCC(=O)O)NC(=O)[C@H](CO)NC(C)=O)CSSC[C@@H](C(=O)N(C)CC(=O)N[C@@H](CCC(=O)O)C(=O)NCC(=O)N[C@@H](C)C(=O)N[C@@H](CCCCNC(=O)CC[C@H](NC(=O)CNC(=O)CC[C@H](NC(=O)CCCCCCCCCCCCCCCCC(=O)O)C(=O)O)C(=O)O)C(N)=O)NC(=O)[C@H](CCCNC(=N)N)NC(=O)[C@H](Cc2c[nH]cn2)NC(=O)[C@H](CCC(=O)O)NC(=O)CNC(=O)[C@H](Cc2c[nH]c3ccccc23)NC(=O)[C@H](CC(=O)O)NC(=O)[C@H](CCC(N)=O)NC(=O)[C@H](Cc2cn(C)c3ccccc23)NC1=O [Compound 112] (Ac-SEYCI[Trp(1-Me)]QDWGEHRC[Sar]EGAK([γGlu-Gly-γGlu-C18 diacid])-NH2; disulfide 4-14), the IC50 was under 500 nM.
Compound CC[C@H](C)[C@@H]1NC(=O)[C@@H](NC(=O)[C@H](Cc2ccccc2)NC(=O)[C@H](CCC(=O)O)NC(=O)CNC(C)=O)CSSC[C@@H](C(=O)N(C)CC(=O)N[C@@H](CCC(=O)O)C(=O)N[C@@H](C)C(N)=O)NC(=O)[C@H](CCCNC(=N)N)NC(=O)[C@H](Cc2c[nH]cn2)NC(=O)[C@H](CCC(=O)O)NC(=O)CNC(=O)[C@H](Cc2c[nH]c3ccccc23)NC(=O)[C@H](CC(=O)O)NC(=O)[C@H](CCC(N)=O)NC(=O)[C@H](Cc2cn(C)c3ccccc23)NC1=O [Compound 87] (Ac-GEFCI[Trp(1-Me)]QDWGEHRC[Sar]EA-NH2; disulfide 4-14) has an IC50 of under 100 nM.
Compound CC[C@H](C)[C@H](NC(C)=O)C(=O)N[C@H]1CSSC[C@@H](C(=O)N[C@H](C(N)=O)[C@@H](C)O)NC(=O)[C@H](CCCNC(=N)N)NC(=O)[C@H](Cc2c[nH]cn2)NC(=O)[C@H](CCCNC(=N)N)NC(=O)CNC(=O)[C@H](Cc2c[nH]c3ccccc23)NC(=O)[C@H](CC(=O)O)NC(=O)[C@H](CCC(N)=O)NC(=O)[C@H](Cc2c[nH]c3ccccc23)NC(=O)[C@H]([C@@H](C)CC)NC1=O [Compound 18] (Ac-ICIWQDWGRHRCT-NH2; disulfide 2-12) has an IC50 of under 100 nM.
CC[C@H](C)[C@@H]1NC(=O)[C@@H](NC(=O)[C@H](Cc2ccccc2)NC(=O)[C@H](CCC(=O)O)NC(=O)[C@H](CO)NC(C)=O)CSCC[C@@H](C(=O)N(C)CC(=O)N[C@@H](CCC(=O)O)C(=O)NCC(=O)N[C@@H](CCC(=O)O)C(=O)NCCOCCOCC(=O)NCCOCCOCC(=O)N[C@@H](CCCCNC(=O)CC[C@H](NC(=O)CNC(=O)CC[C@H](NC(=O)CCCCCCCCCCCCCCC(=O)O)C(=O)O)C(=O)O)C(N)=O)NC(=O)[C@H](CCCNC(=N)N)NC(=O)[C@H](Cc2c[nH]cn2)NC(=O)[C@H](CCC(=O)O)NC(=O)CNC(=O)[C@H](Cc2c[nH]c3ccccc23)NC(=O)[C@H](CC(=O)O)NC(=O)[C@H](CCC(N)=O)NC(=O)[C@H](Cc2cn(C)c3ccccc23)NC1=O [Compound 160, Ac-SEFA(1)I[1-Me-Trp]QDWGEHRhC(1)[Sar]EGE[Peg3][Peg3]-K([15-carboxy-pentadecanoyl][γGlu]G[γGlu])-NH2] (Ac-SEFCI[Trp(1-Me)]QDWGEHR[Abu(4-yl)][Sar]EGE[AEEA][AEEA]K([γGlu-Gly-γGlu-C16 diacid])-NH2; thioether 4-14) gave an IC50 of under 100 nM.
CC[C@H](C)[C@@H]1NC(=O)[C@@H](NC(=O)[C@H](Cc2ccccc2)NC(C)=O)CSSC[C@@H](C(=O)N[C@H](C(=O)NCC(=O)N[C@@H](C)C(=O)N[C@@H](CCC(=O)O)C(=O)N[C@@H](CO)C(N)=O)[C@@H](C)O)NC(=O)[C@H](CCCNC(=N)N)NC(=O)[C@H](Cc2c[nH]cn2)NC(=O)[C@H](CCC(=O)O)NC(=O)CNC(=O)[C@H](Cc2c[nH]c3ccccc23)NC(=O)[C@H](CC(=O)O)NC(=O)[C@H](CCC(N)=O)NC(=O)[C@H](Cc2ccc3ccccc3c2)NC1=O [Compound 64] (Ac-FCI[2Nal]QDWGEHRCTGAES-NH2; disulfide 2-12) showed an IC50 of under 100 nM.

Same assay, conditions: Table 4; valine 3 versus isoleucine 3 pairs; read-out: CP hemolysis IC50
CC[C@H](C)[C@H](NC(C)=O)C(=O)N[C@H]1CSSC[C@@H](C(=O)N[C@@H](CO)C(N)=O)NC(=O)[C@H](CCCNC(=N)N)NC(=O)[C@H](Cc2c[nH]cn2)NC(=O)[C@H](CCC(=O)O)NC(=O)CNC(=O)[C@H](Cc2c[nH]c3ccccc23)NC(=O)[C@H](CC(=O)O)NC(=O)[C@H](CCC(N)=O)NC(=O)[C@H](Cc2c[nH]c3ccccc23)NC(=O)[C@H](C(C)C)NC1=O [G, reference compound] (Ac-ICVWQDWGEHRCS-NH2; disulfide 2-12) gave an IC50 of 180 nM.
CC[C@H](C)[C@H](NC(C)=O)C(=O)N[C@H]1CSSC[C@@H](C(=O)N[C@H](C(=O)NCC(=O)N[C@@H](C)C(=O)N[C@@H](CCC(=O)O)C(=O)N[C@@H](CO)C(N)=O)[C@@H](C)O)NC(=O)[C@H](CCCNC(=N)N)NC(=O)[C@H](Cc2c[nH]cn2)NC(=O)[C@H](CCC(=O)O)NC(=O)CNC(=O)[C@H](Cc2c[nH]c3ccccc23)NC(=O)[C@H](CC(=O)O)NC(=O)[C@H](CCC(N)=O)NC(=O)[C@H](Cc2c[nH]c3ccccc23)NC(=O)[C@H](C(C)C)NC1=O [D, reference compound] (Ac-ICVWQDWGEHRCTGAES-NH2; disulfide 2-12) was tested, and the IC50 was 210 nM.
